The series is classed as physicochemical. The procedure:
X-ray powder diffraction data were acquired using PhotonMax high-flux 9 KW rotating cathode X-ray generator (SmartLab 9 KW, Rigaku). All diffractograms were acquired using copper radiation (CuKα, 45 kV/200 mA, λ=1.5418 Å) and using KB filter to reduce unneeded radiation. The measurement was carried out by placing the sample gently crushed in an agate mortar on a measurement stand and then scanning the sample under 2θscanning conditions with a scanning range of 3° to 40°, a scanning speed of 20°/min, and a step size of 0.02°.
X-ray powder diffraction data were acquired using a diffractometer (MiniFlex 600, Rigaku). All diffractograms were acquired using copper radiation (CuKα, 40 kV/15 mA, λ=1.5418 Å) and using KB filter to reduce unneeded radiation. Scanning was carried out in 2θ with a scanning range of 5° to 50°, a scanning speed of 5°/min, and a step size of 0.02°.
The water content was measured using a coulometric moisture meter (CA-100, Nitto Seiko Analytech), using about 0.5 g of the solid sample, Aquamicron GEX as the solvent, and 3 mg of Aquamicron SS as a titrant.
The water content was measured using a Karl Fischer moisture meter (AQUACOUNTER AQV-2100, HIRANUMA) equipped with an electrolytic bath stirrer for iodine generation and a constant current potentiometer, using about 0.2 g of the solid sample, Aquamicron GEX as the solvent, and 3 mg of Aquamicron SS-Z as a titrant.
The crystal of KUS121 dihydrate was subjected to a normal storage stability test (25° C./60% RH, 18 months) and a storage stability test under accelerated test condition (40° C./75% RH, 6 months). For comparison, the crystal of KUS121 anhydride was also subjected to storage stability tests under accelerated test condition (40° C./75% RH, 6 months) and under ambient temperature condition (30 months).

[1] abbreviates: 40° C./75% RH (6 months), dihydrate.

The values below come from patent US20260242338A1, “CRYSTALS OF N[…]” (KYOTO DRUG DISCOVERY & DEVELOPMENT CO., LTD., priority 2022, published 2026).

Like-named read-outs stand apart in the source and are kept apart here.

For the compound `Cc1cc(F)ccc1-c1ccc(/N=N/c2cc(S(=O)(=O)[O-])c3ccccc3c2N)cn1.[Na+]` [Crystal of KUS121 anhydride, Sodium 4-amino-3-[6-(4-fluoro-2-methylphenyl)pyridin-3-ylazo]naphthalene-1-sulfonate], the Content by setting is: (40° C./75% RH (6 months)) 100.8%; (Initial) 98.2%. Moreover, the Purity test is, setting by setting: (40° C./75% RH (6 months)) 99.5%; (Initial) 99.5%. For the same compound, the Water content came to 3.0% (40° C./75% RH (6 months)), 9.1% (Ambient temperature (30 months)) and 0.8% (Initial).
In the case of `Cc1cc(F)ccc1-c1ccc(/N=N/c2cc(S(=O)(=O)[O-])c3ccccc3c2N)cn1.[Na+]` [Crystal of KUS121 dihydrate, sodium 4-amino-3-[6-(4-fluoro-2-methylphenyl)pyridin-3-ylazo]naphthalene-1-sulfonate dihydrate], the Content worked out at 99.6% (25° C./60% RH (18 months)); 99.6% under setting [1]; 99.7% (Initial, dihydrate). For the same compound, the Related substance is listed as 0.11% (25° C./60% RH (18 months)), 0.09% (40° C./75% RH (6 months)) and 0.07% (Initial). Also, the Water content by setting is: (25° C./60% RH (18 months)) 7.4%; under setting [1], 7.4%; (Initial, dihydrate) 7.4%. In addition, the “Storage stability (overall statement)” value (compared with other hydrate crystals, accelerated test condition) was “had better storage stability than other hydrate crystals, and was extremely stable even under accelerated test condition”.
